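96-well plates; 48 h exposure; 5 concentrations. Endpoints by linear interpolation between flanking doses. Not reached: highest tested concentration assigned. At the GI50, growth is halved.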 Calls of active or inactive are those of the source. Cut-off read from the data, not from the text of the source: active = GI50 up to about 1.1 µM and inactive = higher.
Columns and labels:
Assay in all cases: NCI anticancer screen, dose series, 48 h
SK-OV-3 = system: SK-OV-3
EKVX = system: EKVX
UACC-62 = system: UACC-62
SK-MEL-28 = system: SK-MEL-28
OVCAR-8 = system: OVCAR-8
HCT-116 = system: HCT-116
OVCAR-3 = system: OVCAR-3
SK-MEL-2 = system: SK-MEL-2
SW-620 = system: SW-620
NCI-H23 = system: NCI-H23
K562 = system: K562
OVCAR-5 = system: OVCAR-5
SNB-19 = system: SNB-19
SF-268 = system: SF-268
HOP-92 = system: HOP-92
SR = system: SR
SN12C = system: SN12C

Measured: GI50

COC(=O)c1cc(Cl)ccc1NC(=O)c1ccc([N+](=O)[O-])cc1
inactive: SK-OV-3 19.7 µM | EKVX 31.8 µM | UACC-62 24.2 µM | SK-MEL-28 28.2 µM | OVCAR-8 15.9 µM | HCT-116 4.78 µM | OVCAR-3 15.6 µM | SK-MEL-2 49 µM | SW-620 29.9 µM | NCI-H23 18.8 µM | K562 26.9 µM | OVCAR-5 > 100 µM

CN1N=CSC12C(=O)N(c1ccc(Cl)cc1)C(=O)N2c1ccc(Cl)cc1 (centres undefined)
inactive: SK-OV-3 3.95 µM | SNB-19 3.82 µM | EKVX 7.14 µM | UACC-62 3.36 µM | SF-268 5.41 µM | SK-MEL-28 4.4 µM | OVCAR-8 3.51 µM | HCT-116 3.15 µM | OVCAR-3 1.43 µM | HOP-92 3.15 µM | SR 2.75 µM | SW-620 4.52 µM | NCI-H23 2.12 µM | K562 2.99 µM | SN12C 3.44 µM

CCC1(N=[N+]=[N-])C(=O)Nc2cc(C)ccc2C1=O (centres undefined)
inactive: SK-OV-3 > 100 µM | SNB-19 > 100 µM | EKVX 42.7 µM | UACC-62 62.2 µM | SF-268 > 100 µM | SK-MEL-28 > 100 µM | OVCAR-8 > 100 µM | HCT-116 > 100 µM | OVCAR-3 45.6 µM | HOP-92 46.1 µM | SK-MEL-2 > 100 µM | SW-620 > 100 µM | NCI-H23 70.1 µM | K562 47.5 µM | OVCAR-5 > 100 µM | SN12C 48.6 µM

CCOC(=O)c1cc(OC(=O)CC)c2c(OC)ccc(OC)c2c1
inactive: SK-OV-3 21.9 µM | SNB-19 89.3 µM | EKVX 35.8 µM | UACC-62 28.8 µM | SK-MEL-28 > 100 µM | HCT-116 70.1 µM | SR 18.7 µM | SK-MEL-2 > 100 µM | SW-620 66.5 µM | NCI-H23 74 µM | K562 42.3 µM | OVCAR-5 46.1 µM | SN12C 78.2 µM

CN1CCN(C)C1c1cccc(C2N(C)CCN2C)c1
inactive: SK-OV-3 > 100 µM | SNB-19 > 100 µM | UACC-62 > 100 µM | SF-268 > 100 µM | SK-MEL-28 > 100 µM | HCT-116 > 100 µM | OVCAR-3 > 100 µM | HOP-92 > 100 µM | SK-MEL-2 > 100 µM | NCI-H23 > 100 µM | K562 46.2 µM | OVCAR-5 > 100 µM | SN12C > 100 µM

CC(C)(C)S(=O)OC12CC3CC(CC(C3)C1)C2 (centres undefined)
inactive: SNB-19 > 100 µM | EKVX > 100 µM | UACC-62 > 100 µM | SF-268 > 100 µM | SK-MEL-28 > 100 µM | OVCAR-8 > 100 µM | HCT-116 > 100 µM | OVCAR-3 > 100 µM | SR > 100 µM | SK-MEL-2 > 100 µM | SW-620 > 100 µM | NCI-H23 > 100 µM | K562 > 10 µM | OVCAR-5 > 100 µM | SN12C > 100 µM

CC(=O)Nc1c(C)ccc2c1C(=O)c1ccccc1C2=O
inactive: SK-OV-3 > 100 µM | UACC-62 > 100 µM | SF-268 > 100 µM | OVCAR-8 82.6 µM | HCT-116 91.8 µM | HOP-92 > 100 µM | SR > 100 µM | SK-MEL-2 > 100 µM | SW-620 > 100 µM | K562 > 100 µM | OVCAR-5 > 100 µM | SN12C > 100 µM

N=C(N)Nc1nc2cc(N)ccc2o1
inactive: SK-OV-3 > 100 µM | SNB-19 > 100 µM | EKVX > 100 µM | UACC-62 > 100 µM | SF-268 > 100 µM | SK-MEL-28 > 100 µM | OVCAR-8 > 100 µM | HCT-116 > 100 µM | HOP-92 > 100 µM | SR > 100 µM | SK-MEL-2 > 100 µM | SW-620 > 100 µM | NCI-H23 > 100 µM | K562 > 100 µM | SN12C > 100 µM

COc1ccc(/C(=N/Nc2ccccc2)C(c2ccc(OC)cc2)C2OC(=O)c3ccccc32)cc1 (centres undefined)
inactive: SNB-19 > 100 µM | EKVX 37.8 µM | UACC-62 52.7 µM | SF-268 23.3 µM | OVCAR-8 > 100 µM | HCT-116 > 100 µM | SK-MEL-2 > 100 µM | K562 31.8 µM | SN12C > 100 µM

CCOc1ccc(NC(=O)C(=O)C(C(=O)c2ccc3ccccc3c2)C2OC(=O)c3ccccc32)cc1 (centres undefined)
inactive: SK-OV-3 50.9 µM | SNB-19 9.62 µM | EKVX > 100 µM | UACC-62 13.7 µM | SF-268 13.3 µM | SK-MEL-28 13.6 µM | OVCAR-8 17.6 µM | HCT-116 15.7 µM | OVCAR-3 16.2 µM | HOP-92 19.5 µM | SK-MEL-2 15.5 µM | SW-620 15.6 µM | NCI-H23 11.7 µM | K562 20.5 µM | OVCAR-5 30.9 µM | SN12C 17.2 µM

CNC(=O)C(C)Oc1ccc(OCC2CCCCC2)cc1 (centres undefined)
inactive: SK-OV-3 > 100 µM | SNB-19 > 100 µM | UACC-62 > 100 µM | SF-268 > 100 µM | SK-MEL-28 > 100 µM | OVCAR-8 > 100 µM | HCT-116 > 100 µM | OVCAR-3 26.4 µM | SK-MEL-2 > 100 µM | NCI-H23 35.6 µM | K562 65 µM | SN12C > 100 µM

CCCCCCCCCCCCCP(=O)(O)NCC(N)=O
inactive: SK-OV-3 > 100 µM | SNB-19 45.6 µM | EKVX > 100 µM | UACC-62 52.4 µM | SF-268 48.4 µM | SK-MEL-28 39.1 µM | OVCAR-8 71.3 µM | HCT-116 45.7 µM | OVCAR-3 39 µM | HOP-92 25.4 µM | SK-MEL-2 53.2 µM | SW-620 99.8 µM | NCI-H23 > 100 µM | OVCAR-5 > 100 µM | SN12C 52.7 µM

COc1cccc2c1[C@]1(O)C(O)CCCC21 (some centres undefined)
inactive: SK-OV-3 > 100 µM | SNB-19 > 100 µM | EKVX > 10 µM | UACC-62 > 100 µM | SF-268 > 100 µM | SK-MEL-28 > 100 µM | OVCAR-8 > 100 µM | HCT-116 > 100 µM | OVCAR-3 > 100 µM | SK-MEL-2 > 100 µM | SW-620 > 100 µM | NCI-H23 > 100 µM | K562 > 100 µM | OVCAR-5 > 100 µM | SN12C > 100 µM

CCc1ccccc1NC(=O)C(=O)C(C#N)c1ccccc1Cl (centres undefined)
inactive: SNB-19 > 100 µM | EKVX > 100 µM | UACC-62 > 100 µM | SF-268 > 100 µM | SK-MEL-28 > 100 µM | OVCAR-8 > 100 µM | HCT-116 > 100 µM | OVCAR-3 > 100 µM | HOP-92 > 100 µM | SK-MEL-2 > 100 µM | SW-620 > 100 µM | NCI-H23 > 100 µM | OVCAR-5 > 100 µM | SN12C > 100 µM

CCCN1CN(C(C(=O)N[C@@H]2C(=O)N3C(C(=O)O)=C(C)CSC23)c2ccc(O)cc2)CSC1=S (some centres undefined)
inactive: SK-OV-3 > 100 µM | SNB-19 > 100 µM | EKVX > 100 µM | UACC-62 > 100 µM | SF-268 > 100 µM | SK-MEL-28 > 100 µM | OVCAR-8 > 100 µM | HCT-116 > 100 µM | OVCAR-3 45.5 µM | HOP-92 > 100 µM | SK-MEL-2 > 100 µM | SW-620 14.2 µM | NCI-H23 > 100 µM | K562 80 µM | OVCAR-5 > 100 µM | SN12C > 100 µM

O=C1C(Cl)C(c2ccc(Cl)cc2)N1n1cnc2ccccc2c1=O (centres undefined)
inactive: SK-OV-3 33.8 µM | SNB-19 > 100 µM | EKVX 14.5 µM | UACC-62 87.1 µM | SF-268 > 100 µM | SK-MEL-28 > 100 µM | OVCAR-8 > 100 µM | HCT-116 > 100 µM | OVCAR-3 > 100 µM | SR 52.7 µM | SK-MEL-2 > 100 µM | SW-620 77.8 µM | NCI-H23 > 100 µM | K562 35.6 µM | OVCAR-5 > 100 µM | SN12C > 100 µM

Nc1nc[n+](Cc2ccccc2CCO)c2[nH]cnc12
inactive: SK-OV-3 > 100 µM | SNB-19 > 100 µM | EKVX > 100 µM | UACC-62 > 100 µM | SF-268 > 100 µM | SK-MEL-28 > 100 µM | OVCAR-8 > 100 µM | OVCAR-3 > 100 µM | HOP-92 > 100 µM | SK-MEL-2 > 100 µM | SW-620 > 100 µM | NCI-H23 > 100 µM | K562 > 100 µM | OVCAR-5 > 100 µM | SN12C > 100 µM

S=C1NC(c2ccccc2)=NC(Cc2ccccc2)(c2ccccc2)N1c1ccccc1 (centres undefined)
inactive: SNB-19 45.4 µM | EKVX > 100 µM | UACC-62 > 100 µM | SF-268 > 100 µM | SK-MEL-28 > 100 µM | OVCAR-8 41.4 µM | HCT-116 > 100 µM | OVCAR-3 > 100 µM | HOP-92 > 100 µM | SR > 100 µM | SW-620 > 100 µM | NCI-H23 > 100 µM | K562 > 100 µM | OVCAR-5 > 100 µM | SN12C > 100 µM

CC/C(=N/O)C(C)C(=O)CCC(=O)Nc1ccc(Cl)cc1 (centres undefined)
inactive: SK-OV-3 > 100 µM | SNB-19 > 100 µM | EKVX > 100 µM | UACC-62 28.2 µM | SF-268 > 100 µM | SK-MEL-28 > 100 µM | OVCAR-8 > 100 µM | HCT-116 > 100 µM | OVCAR-3 > 100 µM | SK-MEL-2 > 100 µM | SW-620 > 100 µM | NCI-H23 > 100 µM | K562 57.1 µM | OVCAR-5 > 100 µM | SN12C > 100 µM

From ChEMBL document CHEMBL1201862, “PubChem BioAssay data set” (2004)
